Test results as given in article PMC3064100 (Diabetes, 2011).

Key:
Format in all cases: in vivo, human
Conditions in all cases: i.v. infusion over 360 min, type 2 diabetic patients
[1] = system: patients with type 2 diabetes; assay: Insulin secretion rates by deconvolution of C-peptide
[2] = system: patients with type 2 diabetes; assay: Plasma free
[3] = system: patients with type 2 diabetes; assay: Capillary plasma glucose during 360-min intravenous infusion
[4] = system: patients with type 2 diabetes; assay: Plasma glucagon during 360-min intravenous infusion

## CC[C@H](C)[C@H](NC(=O)[C@H](CO)NC(=O)[C@H](Cc1ccc(O)cc1)NC(=O)[C@H](CC(=O)O)NC(=O)[C@H](CO)NC(=O)[C@@H](NC(=O)[C@H](Cc1ccccc1)NC(=O)[C@@H](NC(=O)CNC(=O)[C@H](CCC(=O)O)NC(=O)[C@H](C)NC(=O)[C@@H](N)Cc1ccc(O)cc1)[C@@H](C)O)[C@@H](C)CC)C(=O)N[C@@H](C)C(=O)N[C@@H](CCSC)C(=O)N[C@@H](CC(=O)O)C(=O)N[C@@H](CCCCN)C(=O)N[C@H](C(=O)N[C@@H](Cc1c[nH]cn1)C(=O)N[C@@H](CCC(N)=O)C(=O)N[C@@H](CCC(N)=O)C(=O)N[C@@H](CC(=O)O)C(=O)N[C@@H](Cc1ccccc1)C(=O)N[C@H](C(=O)N[C@@H](CC(N)=O)C(=O)N[C@@H](Cc1c[nH]c2ccccc12)C(=O)N[C@@H](CC(C)C)C(=O)N[C@@H](CC(C)C)C(=O)N[C@@H](C)C(=O)N[C@@H](CCC(N)=O)C(=O)N[C@@H](CCCCN)C(=O)NCC(=O)N[C@@H](CCCCN)C(=O)N[C@@H](CCCCN)C(=O)N[C@@H](CC(N)=O)C(=O)N[C@@H](CC(=O)O)C(=O)N[C@@H](Cc1c[nH]c2ccccc12)C(=O)N[C@@H](CCCCN)C(=O)N[C@@H](Cc1c[nH]cn1)C(=O)N[C@@H](CC(N)=O)C(=O)N[C@H](C(=O)N[C@H](C(=O)N[C@@H](CCC(N)=O)C(=O)O)[C@@H](C)O)[C@@H](C)CC)C(C)C)[C@@H](C)CC [GIP, glucose-dependent insulinotropic polypeptide]
[1]
  Effect on insulin secretion (words; insulin, C-peptide, insulin secretory rates): hardly did so
[2]
  Effect on plasma concentrations of free fatty acids: did not alter
[3]
  Effect on glucose concentrations: slight reduction
[4]
  Effect on glucagon concentrations: tended to increase slightly
